How the values were obtained:
[1] = tested on: Candida albicans TIMM 1623; assay: Antifungal activity test (in vivo), mouse systemic infection model; settings: for T/C (%): survival time of administration group / control group x100
Method: With respect to compounds I-1, I-3 and I-6 obtained in Examples 1, 3 and 6 respectively, therapeutic effects at the time of subcutaneous administration of compounds I-1, I-3 and I-6 on a mouse systemic infection model by Candida albicans TIMM 1623 were tested.
The test was carried out using 5 animals for each of the drug administration groups and Negative control group (sterile physiological saline administration group).
Each of compounds I-1, I-3 and I-6 was dissolved in and diluted with dimethyl sulfoxide (DMSO; Wako Pure Chemical Industries, Ltd.) and then prepared into a predetermined concentration by diluting with sterile physiological saline.
As the control experiment, Fluconazole (FLCZ, Flanos intravenous drip solution 100 mg; TOYAMA CHEMICAL CO, LTD.) diluted to a predetermined concentration with sterile physiological saline was used.
On the next day of the receipt of animals, body weights of mice were measured and CP (crude protein) was intraperitoneally administered at a dose of 200 mg/kg based on the individual body weight, and then they were reared for 3 days.
Cells of C. albicans TIMM 1623 cultured overnight at 35° C. on SDA (Sabouraud dextrose agar; Eiken Chemical Co., Ltd.) plate medium were suspended in sterile physiological saline and used as the Stock solution, and a portion thereof was diluted with 10% formalin (Wako Pure Chemical Industries, Ltd.). The number of cells in the diluted liquid was counted under a biological microscope using a hemocytometer, and then an inoculum was prepared by diluting the stock solution with sterile physiological saline (about 1.5×10^5 cells/ml). By inoculating 0.2 ml of this cell suspension through caudal vein, infection was induced. In this connection, the number of viable cells in the inoculum was verified by spreading the cell suspension optionally diluted with sterile physiological saline on an SDA plate medium and then culturing at 35° C. Each of the substances to be tested, control substance or sterile physiological saline was subcutaneously administered after 2 hours of the infection and for 3 days starting on the next day of infection once a day, a total of 4 times. After measuring individual body weight on the next day of infection, CP was again administered intraperitoneally at a dose of 100 mg/kg. The number of survived mice was observed and recorded for 14 days starting on the next day of infection.
The results were shown in Table 3 below and FIGS. 1A to 1D. In the table, the administration dose of the compounds of the present invention and the comparative compound represents a mg amount per 1 kg of a mouse weight (mg/kg).
Significant deference was tested, by 5% for both sides of the levels of significance, in accordance with the Kaplan-Meier method Logrank test (comparison of multiple groups), on the survival time distribution of each of the substances to be tested and control substance administration groups and sterile physiological saline administration group. SAS release 8.2 (SAS Institute Japan) was used in the Kaplan-Meier method Logrank test. (T/C(%)=[survival time of administration group (integrated value)/survival time of control group (integrated value)]×100)

[2] = tested on: Cryptococcus neoformans ATCC 24067; assay: Antifungal activity test (in vitro), MIC; format: cell-based; settings: ATCC24067
Method: (§1) Minimum inhibitory concentration (MIC) of each of the compounds obtained in Examples 1 to 12 was measured for respective fungi at MOS Pharm Service, by the methods described in Antimicrobial Agents and Chemotherapy, vol. 3, pp. 40-48 (1973), Antimicrobial Agents and Chemotherapy, vol. 33, pp. 215-222 (1989) and Antimicrobial Agents and Chemotherapy, vol. 38, pp. 2362-2368 (1994). The measuring conditions are shown in the following. In this case, Voriconazol was used as a comparative compound. Cryptococcus neoformans ATCC 24067, Pityrosporum ovale ATCC 38593; Cultured at 37° C. for 2 day using fluid Sabouraud medium, and this was used as a cell suspension. Each of the compounds of the invention was adjusted to a concentration of 1% by weight using dimethyl sulfoxide (DMSO) and a medium similar to the respective medium used in the above-mentioned fungal culture, having a final concentration of from 0.001 to 100 μg/ml, was prepared. Each of the inoculation cell suspensions prepared by the above-mentioned methods was inoculated onto this agar plate. […] In this connection, Voriconazol was used as the comparative compound C-1.

[3] = tested on: Pityrosporum ovale ATCC 38593; assay: Antifungal activity test (in vitro), MIC; format: cell-based; settings: Malassezia furfur, ATCC38593
Method: as §1

[4] = tested on: Microsporum canis ATCC 36299; assay: Antifungal activity test (in vitro), MIC; format: cell-based; settings: ATCC36299
Method: as §1, with “Microsporum canis” for “Cryptococcus neoformans”, “36299;” for “24067, Pityrosporum ovale ATCC 38593;”, “30°” for “37°”, “days” for “day”

[5] = tested on: Trichophyton mentagrophytes ATCC 9533; assay: Antifungal activity test (in vitro), MIC; format: cell-based; settings: ATCC9533
Method: as §1, with “Trichophyton mentagrophytes” for “Cryptococcus neoformans”, “9533;” for “24067, Pityrosporum ovale ATCC 38593;”, “28°” for “37°”, “3 days” for “2 day”

[6] = tested on: Candida albicans ATCC 10231; assay: Antifungal activity test (in vitro), MIC; format: cell-based; settings: ATCC10231
Method: as §1, with “Candida albicans” for “Cryptococcus neoformans”, “10231 and” for “24067, Pityrosporum ovale”, “44858;” for “38593;”, “20 hours” for “2 day”

[7] = tested on: Aspergillus fumigatus ATCC 1028; assay: Antifungal activity test (in vitro), MIC; format: cell-based; settings: ATCC1028
Method: Minimum inhibitory concentration (MIC) of each of the compounds obtained in Examples 1 to 12 was measured for respective fungi at MOS Pharm Service, by the methods described in Antimicrobial Agents and Chemotherapy, vol. 3, pp. 40-48 (1973), Antimicrobial Agents and Chemotherapy, vol. 33, pp. 215-222 (1989) and Antimicrobial Agents and Chemotherapy, vol. 38, pp. 2362-2368 (1994). The measuring conditions are shown in the following. In this case, Voriconazol was used as a comparative compound.
Aspergillus fumigatus ATCC 1028; Cultured at 28° C. for 2 days using potato dextrose broth, and this was used as a cell suspension.
Each of the compounds of the invention was adjusted to a concentration of 1% by weight using dimethyl sulfoxide (DMSO) and a medium similar to the respective medium used in the above-mentioned fungal culture, having a final concentration of from 0.001 to 100 μg/ml, was prepared. Each of the inoculation cell suspensions prepared by the above-mentioned methods was inoculated onto this agar plate. […] In this connection, Voriconazol was used as the comparative compound C-1.

OC(Cn1cncn1)(Cn1cncn1)c1ccc(F)cc1F [FLCZ, Fluconazole, reference compound]
119%: T/C (%) ([1]; 0.1 mg/kg s.c.)
20: survival rate ([1]; 0.1 mg/kg s.c., day 9) | survival rate ([1]; 0.1 mg/kg s.c., day 10) | survival rate ([1]; 0.1 mg/kg s.c., day 11) | survival rate ([1]; 0.1 mg/kg s.c., day 12) | survival rate ([1]; 0.1 mg/kg s.c., day 13) | survival rate ([1]; 0.1 mg/kg s.c., day 14)
80: survival rate ([1]; 0.3 mg/kg s.c., day 7) | survival rate ([1]; 0.3 mg/kg s.c., day 8) | survival rate ([1]; 0.3 mg/kg s.c., day 9) | survival rate ([1]; 0.3 mg/kg s.c., day 10) | survival rate ([1]; 0.3 mg/kg s.c., day 11) | survival rate ([1]; 0.3 mg/kg s.c., day 12) | survival rate ([1]; 0.3 mg/kg s.c., day 13) | survival rate ([1]; 0.3 mg/kg s.c., day 14) | survival rate ([1]; 1 mg/kg s.c., day 13) | survival rate ([1]; 1 mg/kg s.c., day 14)
100: survival rate ([1]; 0.1 mg/kg s.c., day 0) | survival rate ([1]; 0.1 mg/kg s.c., day 1) | survival rate ([1]; 0.1 mg/kg s.c., day 2) | survival rate ([1]; 0.3 mg/kg s.c., day 0) | survival rate ([1]; 0.3 mg/kg s.c., day 1) | survival rate ([1]; 0.3 mg/kg s.c., day 2) | survival rate ([1]; 0.3 mg/kg s.c., day 3) | survival rate ([1]; 0.3 mg/kg s.c., day 4) | survival rate ([1]; 0.3 mg/kg s.c., day 5) | survival rate ([1]; 0.3 mg/kg s.c., day 6) | survival rate ([1]; 1 mg/kg s.c., day 0) | survival rate ([1]; 1 mg/kg s.c., day 1) | survival rate ([1]; 1 mg/kg s.c., day 2) | survival rate ([1]; 1 mg/kg s.c., day 3) | survival rate ([1]; 1 mg/kg s.c., day 4) | survival rate ([1]; 1 mg/kg s.c., day 5) | survival rate ([1]; 1 mg/kg s.c., day 6) | survival rate ([1]; 1 mg/kg s.c., day 7) | survival rate ([1]; 1 mg/kg s.c., day 8) | survival rate ([1]; 1 mg/kg s.c., day 9) | survival rate ([1]; 1 mg/kg s.c., day 10) | survival rate ([1]; 1 mg/kg s.c., day 11) | survival rate ([1]; 1 mg/kg s.c., day 12)
235%: T/C (%) ([1]; 1 mg/kg s.c.)
60: survival rate ([1]; 0.1 mg/kg s.c., day 3) | survival rate ([1]; 0.1 mg/kg s.c., day 4) | survival rate ([1]; 0.1 mg/kg s.c., day 5) | survival rate ([1]; 0.1 mg/kg s.c., day 6)
216%: T/C (%) ([1]; 0.3 mg/kg s.c.)
40: survival rate ([1]; 0.1 mg/kg s.c., day 7) | survival rate ([1]; 0.1 mg/kg s.c., day 8)

C[C@@H](n1ccc(-c2ccccn2)cc1=O)[C@](O)(Cn1cncn1)c1ccc(F)cc1F [I-8, 1′-[(1R,2R)-2-(2,4-difluorophenyl)-2-hydroxy-1-methyl-3-(1,2,4-triazol-1-yl)propyl]-2,4′-bipyridin-2′-one]
0.3 µg/mL: MIC [2]
30 µg/mL: MIC [5]
1 µg/mL: MIC [3]
0.1 µg/mL: MIC [6]
100 µg/mL: MIC [7]
10 µg/mL: MIC [4]

Cc1ccc(C2=CCCN([C@H](C)[C@](O)(Cn3cncn3)c3ccc(F)cc3F)C2)nc1C [I-11, (2R,3R)-2-(2,4-difluorophenyl)-3-(5,6-dimethyl-5′,6′-dihydro-2,3′-bipyridin-1′(2′H)-yl)-1-(1,2,4-triazol-1-yl)butan-2-ol]
100 µg/mL: MIC [6] | MIC [7]
0.1 µg/mL: MIC [3]
0.3 µg/mL: MIC [2]
10 µg/mL: MIC [4] | MIC [5]
